The target of this assay is Krueppel-like factor 5 (Homo sapiens) (UniProt Q13887). Put plainly: change in KLF5 protein levels, late-stage follow-up, counter-screen for KLF5 inhibitor project, western blot, chemiluminescence, HCT116 colorectal cells (AID 588652). As to conditions: HCT116 KLF5 protein level, 24 h, at 10 µM, stronger effect = higher value. For orientation: Counterscreens check selectivity or assay interference.

The structures appear in SMILES notation.

Sequence of Krueppel-like factor 5 (Homo sapiens) (Q13887 whole entry, looked up): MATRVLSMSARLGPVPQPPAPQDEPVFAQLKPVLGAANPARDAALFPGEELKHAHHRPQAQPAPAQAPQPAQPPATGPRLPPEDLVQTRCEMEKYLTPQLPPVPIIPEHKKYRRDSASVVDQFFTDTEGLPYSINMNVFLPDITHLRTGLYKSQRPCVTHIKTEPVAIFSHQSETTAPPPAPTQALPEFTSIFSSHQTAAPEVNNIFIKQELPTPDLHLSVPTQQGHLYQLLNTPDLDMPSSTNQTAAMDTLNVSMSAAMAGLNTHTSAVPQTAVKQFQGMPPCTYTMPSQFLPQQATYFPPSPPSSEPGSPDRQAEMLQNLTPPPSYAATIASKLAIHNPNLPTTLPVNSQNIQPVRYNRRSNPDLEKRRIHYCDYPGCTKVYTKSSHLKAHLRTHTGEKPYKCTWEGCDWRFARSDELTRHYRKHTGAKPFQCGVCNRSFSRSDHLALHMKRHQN

For `CN(C(=O)COC(=O)/C=C/c1cccc([N+](=O)[O-])c1)C1CCS(=O)(=O)C1` (stereo unspecified), the inhibition was 62.6%.

Usually inhibition stands for the percentage by which the read-out fell short of the control.

The record behind these values is PubChem BioAssay AID588652 (The Scripps Research Institute Molecular Screening Center, 2011).
